Test results taken from patent US20220331435A1, “PROTAC SMALL MOLECULE COMPOUND AND USE THEREOF” (ZHUHAI YUFAN BIOTECHNOLOGIES CO., LTD, priority 2019, published 2022).

molecular target: T1, HPK1 (Homo sapiens, UniProt Q92918); assay: HPK1 degradation in Jurkat cells (Western blot); assay type: cell-based; conditions: Jurkat, 6 h, treatment time 6 h, compound 100 nM
T1 construct: endogenous in cells; host or cells: Jurkat cells
Experimental: (§1) S1: Jurkat cells were resuscitated, and then subjected to adherent culture for 12 h, compounds were added, the compound concentrations were fixed (treatment time was 0 h, 3 h, 6 h, 12 h, 24 h and 72 h) or the treatment time was fixed (compound concentrations were 0 nM, 1 nM, 10 nM, 100 nM and 1000 nM);
(§2) S2: the culture solution was poured out, the cells were washed with 3 mL of PBS pre-cooled at 4° C., then the washing solution was discarded, an appropriate amount of lysis solution containing PMSF (100×) was added according to the cell amount, the mixture was uniformly mixed, then placed on ice for lysis for 30 min, and centrifuged at 12000 rpm and at 4° C. for 5 min, (a centrifuge was started for pre-cooling in advance), and the centrifuged supernatant was transferred into a new centrifuge tube and prepared for quantification;
(§3) S3: an BCA quantitative reagent of Pierce™ BCA Protein Assay Kit (23225) was added at 200 uL/well, then 20 uL of BSA with known different concentrations was added to prepare a protein quantitative standard curve and a sample protein to be detected with avoiding generation of bubbles, the mixture was incubated for 30 min in the dark at 37° C., an OD value was measured at 562 nm, then an appropriate amount of SDS-PAGE loading buffer was added to the protein sample, and the reaction mixture was heated for 5 min in a boiling water bath to fully denature the protein, and stored at −20° C. for later use;
(§4) S4: an SDS-PAGE gel was prepared, wherein the voltage of a concentrated gel was 90 V, and the voltage of a separation gel was 120 V, a membrane was transferred for 1 h at 4° C. and at a voltage of 100 V, after the membrane was transferred, the protein membrane was immediately placed in a prepared 5% BSA solution, and the mixture was slowly shaken on a shaker, and sealed for 1 h at room temperature;
(§5) S5: the primary antibody was diluted according to an appropriate proportion according to the specifications of HPK1 Antibody (4472S CST), GLK (D1L4G) Rabbit mAb (92427S CST), SLP-76 (D1R1A) Rabbit mAb (70896S CST), Phospho-SLP-76 (Ser376) (D7S1K) XP® Rabbit mAb (92711T CST) and β-actin Mouse Monoclonal antibody (BE0021 easybio), then incubated overnight with slow shaking at 4° C., and washed 3 times with PBST for 10 min/time;
(§6) S6: Goat Anti-Rabbit IgG (H&L)-HRP Conjugated (BE0101 easybio) or Goat Anti-Mouse IgG (H&L)-HRP Conjugated (BE0102 easybio) was selected according to the primary antibody, and the secondary antibody was diluted according to an appropriate proportion according to the specification of the secondary antibody, then incubated for 1 h at room temperature with slow shaking, and washed 3 times with PBST for 10 min/time; and
(§7) S7: an ECL luminescence was added, the results were observed by a developing machine, Western results were quantified using Image J software, and the degradation rates (HPK1 and GLK) or inhibition rates (SLP76 Ser376 phosphorylation) were calculated by comparison with a control group to which no compounds were added, (degradation rate/inhibition rate=1−administration group/control group).

T1 sequence (Q92918 whole entry): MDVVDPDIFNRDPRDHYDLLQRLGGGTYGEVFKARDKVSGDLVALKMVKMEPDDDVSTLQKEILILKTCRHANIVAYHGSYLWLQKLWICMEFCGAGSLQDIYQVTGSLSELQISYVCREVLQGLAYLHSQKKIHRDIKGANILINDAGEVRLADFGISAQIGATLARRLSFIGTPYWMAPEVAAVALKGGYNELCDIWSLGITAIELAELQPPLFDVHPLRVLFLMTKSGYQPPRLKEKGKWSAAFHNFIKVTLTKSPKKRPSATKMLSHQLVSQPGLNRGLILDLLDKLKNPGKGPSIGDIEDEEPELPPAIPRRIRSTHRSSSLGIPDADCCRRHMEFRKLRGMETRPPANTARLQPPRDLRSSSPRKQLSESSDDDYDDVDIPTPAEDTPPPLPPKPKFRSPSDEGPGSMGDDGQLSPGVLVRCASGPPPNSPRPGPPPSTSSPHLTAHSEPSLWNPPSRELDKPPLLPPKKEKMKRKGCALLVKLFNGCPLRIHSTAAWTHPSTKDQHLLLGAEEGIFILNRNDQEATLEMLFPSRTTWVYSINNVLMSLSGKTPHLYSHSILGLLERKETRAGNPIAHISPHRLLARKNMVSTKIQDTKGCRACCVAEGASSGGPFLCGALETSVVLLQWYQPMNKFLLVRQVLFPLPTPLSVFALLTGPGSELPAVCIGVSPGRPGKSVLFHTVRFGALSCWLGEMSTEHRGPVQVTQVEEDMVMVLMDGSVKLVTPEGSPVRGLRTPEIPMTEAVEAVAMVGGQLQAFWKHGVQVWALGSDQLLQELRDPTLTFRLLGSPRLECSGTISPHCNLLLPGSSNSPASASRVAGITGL

Row | Compound | HPK1 degradation rate at 0.1 µM [%]
1 | CC(C)(O)C#Cc1cccc(COc2cc(-c3cnc(C4CCN(C(=O)CCOCCCCCOc5cccc6c5C(=O)N(C5CCC(=O)NC5=O)C6=O)CC4)s3)cnc2N)c1 (stereo not drawn) [Compound C8] | 66
2 | CC(C)(O)C#Cc1cccc(COc2cc(-c3cnc(C4CCN(C(=O)CCNC(=O)CCCCCOc5cccc6c5C(=O)N(C5CCC(=O)NC5=O)C6=O)CC4)s3)cnc2N)c1 (stereo not drawn) [Compound C15] | -27
3 | CC(C)(O)C#Cc1cccc(COc2cc(-c3cnc(C4CCN(C(=O)CCOCCCCCCCCOc5cccc6c5C(=O)N(C5CCC(=O)NC5=O)C6=O)CC4)s3)cnc2N)c1 (stereo not drawn) [Compound C11] | 30
4 | CC(C)(O)C#Cc1cccc(COc2cc(-c3cnc(C4CCN(C(=O)CCNC(=O)CCCCOc5cccc6c5C(=O)N(C5CCC(=O)NC5=O)C6=O)CC4)s3)cnc2N)c1 (stereo not drawn) [Compound C14] | 58
5 | CC(C)(O)C#Cc1cccc(COc2cc(-c3cnc(C4CCN(C(=O)CCNC(=O)CCCCCCOc5cccc6c5C(=O)N(C5CCC(=O)NC5=O)C6=O)CC4)s3)cnc2N)c1 (stereo not drawn) [Compound C16] | 49
6 | CC(C)(O)C#Cc1cccc(COc2cc(-c3cnc(C4CCN(C(=O)CCOCCCCCCOc5cccc6c5C(=O)N(C5CCC(=O)NC5=O)C6=O)CC4)s3)cnc2N)c1 (stereo not drawn) [Compound C9] | 46
7 | CC(C)(O)C#Cc1cccc(COc2cc(-c3cnc(C4CCN(C(=O)C5CCN(C(=O)CCCCCOc6cccc7c6C(=O)N(C6CCC(=O)NC6=O)C7=O)CC5)CC4)s3)cnc2N)c1 (stereo not drawn) [Compound C18] | 39

molecular target: T2, GLK (Homo sapiens, UniProt Q8IVH8); assay: GLK degradation in Jurkat cells (Western blot); assay type: cell-based; conditions: treatment time 6 h, compound 100 nM
T2 construct: endogenous in cells; host or cells: Jurkat cells
T2 sequence (Q8IVH8 1-894): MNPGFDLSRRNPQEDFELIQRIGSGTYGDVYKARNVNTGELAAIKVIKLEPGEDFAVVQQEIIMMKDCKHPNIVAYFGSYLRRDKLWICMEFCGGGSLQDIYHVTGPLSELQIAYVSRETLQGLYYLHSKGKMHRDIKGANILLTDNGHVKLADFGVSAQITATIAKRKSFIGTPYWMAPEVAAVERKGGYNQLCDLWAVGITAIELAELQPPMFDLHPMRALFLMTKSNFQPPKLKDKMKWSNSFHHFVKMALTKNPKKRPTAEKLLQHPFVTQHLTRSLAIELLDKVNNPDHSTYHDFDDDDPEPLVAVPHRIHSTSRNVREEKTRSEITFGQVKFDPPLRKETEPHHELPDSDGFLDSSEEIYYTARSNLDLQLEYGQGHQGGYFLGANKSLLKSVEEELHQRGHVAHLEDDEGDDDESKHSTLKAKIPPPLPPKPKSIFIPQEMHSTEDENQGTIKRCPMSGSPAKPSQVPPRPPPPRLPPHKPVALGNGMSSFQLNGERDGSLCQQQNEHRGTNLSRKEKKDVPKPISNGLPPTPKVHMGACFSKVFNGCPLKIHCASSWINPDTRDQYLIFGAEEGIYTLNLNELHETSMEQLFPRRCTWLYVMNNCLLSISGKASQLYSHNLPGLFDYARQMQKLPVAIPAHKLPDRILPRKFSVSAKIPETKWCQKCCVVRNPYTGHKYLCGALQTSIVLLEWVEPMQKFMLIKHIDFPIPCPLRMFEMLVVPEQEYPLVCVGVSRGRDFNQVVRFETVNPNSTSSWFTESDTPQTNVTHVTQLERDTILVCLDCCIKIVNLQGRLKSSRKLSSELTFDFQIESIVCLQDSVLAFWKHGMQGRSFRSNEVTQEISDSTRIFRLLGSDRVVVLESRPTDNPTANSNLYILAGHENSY
Experimental: as §1, §2, §3, §4, §5, §6, §7

Row | Compound | GLK degradation rate [%]
8 | CC(C)(O)C#Cc1cccc(COc2cc(-c3cnc(C4CCN(C(=O)CCOCCCCCOc5cccc6c5C(=O)N(C5CCC(=O)NC5=O)C6=O)CC4)s3)cnc2N)c1 (stereo not drawn) [Compound C8] | 34
9 | CC(C)(O)C#Cc1cccc(COc2cc(-c3cnc(C4CCN(C(=O)CCNC(=O)CCCCCOc5cccc6c5C(=O)N(C5CCC(=O)NC5=O)C6=O)CC4)s3)cnc2N)c1 (stereo not drawn) [Compound C15] | 38
10 | CC(C)(O)C#Cc1cccc(COc2cc(-c3cnc(C4CCN(C(=O)CCOCCCCCCCCOc5cccc6c5C(=O)N(C5CCC(=O)NC5=O)C6=O)CC4)s3)cnc2N)c1 (stereo not drawn) [Compound C11] | −36
11 | CC(C)(O)C#Cc1cccc(COc2cc(-c3cnc(C4CCN(C(=O)CCNC(=O)CCCCOc5cccc6c5C(=O)N(C5CCC(=O)NC5=O)C6=O)CC4)s3)cnc2N)c1 (stereo not drawn) [Compound C14] | 60
12 | CC(C)(O)C#Cc1cccc(COc2cc(-c3cnc(C4CCN(C(=O)CCNC(=O)CCCCCCOc5cccc6c5C(=O)N(C5CCC(=O)NC5=O)C6=O)CC4)s3)cnc2N)c1 (stereo not drawn) [Compound C16] | 74
13 | CC(C)(O)C#Cc1cccc(COc2cc(-c3cnc(C4CCN(C(=O)CCOCCCCCCOc5cccc6c5C(=O)N(C5CCC(=O)NC5=O)C6=O)CC4)s3)cnc2N)c1 (stereo not drawn) [Compound C9] | −34
14 | CC(C)(O)C#Cc1cccc(COc2cc(-c3cnc(C4CCN(C(=O)C5CCN(C(=O)CCCCCOc6cccc7c6C(=O)N(C6CCC(=O)NC6=O)C7=O)CC5)CC4)s3)cnc2N)c1 (stereo not drawn) [Compound C18] | 71

tested on: SLP76 Ser376 phosphorylation; assay: Inhibition of SLP76 Ser376 phosphorylation in Jurkat cells (Western blot); assay type: cell-based; conditions: Homo sapiens, treatment time 6 h, compound 100 nM, read-out: SLP76 phosphorylation inhibition rate
Experimental: as §1, §2, §3, §4, §5, §6, §7

Row | Compound | inhibition at 0.1 µM [%]
15 | CC(C)(O)C#Cc1cccc(COc2cc(-c3cnc(C4CCN(C(=O)CCOCCCCCOc5cccc6c5C(=O)N(C5CCC(=O)NC5=O)C6=O)CC4)s3)cnc2N)c1 (stereo not drawn) [Compound C8] | 51
16 | CC(C)(O)C#Cc1cccc(COc2cc(-c3cnc(C4CCN(C(=O)CCNC(=O)CCCCCOc5cccc6c5C(=O)N(C5CCC(=O)NC5=O)C6=O)CC4)s3)cnc2N)c1 (stereo not drawn) [Compound C15] | -7
17 | CC(C)(O)C#Cc1cccc(COc2cc(-c3cnc(C4CCN(C(=O)CCNC(=O)CCCCOc5cccc6c5C(=O)N(C5CCC(=O)NC5=O)C6=O)CC4)s3)cnc2N)c1 (stereo not drawn) [Compound C14] | 26
18 | CC(C)(O)C#Cc1cccc(COc2cc(-c3cnc(C4CCN(C(=O)CCNC(=O)CCCCCCOc5cccc6c5C(=O)N(C5CCC(=O)NC5=O)C6=O)CC4)s3)cnc2N)c1 (stereo not drawn) [Compound C16] | 24
19 | CC(C)(O)C#Cc1cccc(COc2cc(-c3cnc(C4CCN(C(=O)CCOCCCCCCOc5cccc6c5C(=O)N(C5CCC(=O)NC5=O)C6=O)CC4)s3)cnc2N)c1 (stereo not drawn) [Compound C9] | 61
20 | CC(C)(O)C#Cc1cccc(COc2cc(-c3cnc(C4CCN(C(=O)C5CCN(C(=O)CCCCCOc6cccc7c6C(=O)N(C6CCC(=O)NC6=O)C7=O)CC5)CC4)s3)cnc2N)c1 (stereo not drawn) [Compound C18] | 34
21 | CC(C)(O)C#Cc1cccc(COc2cc(-c3cnc(C4CCN(C(=O)C5CCN(C(=O)CCCCCCOc6cccc7c6C(=O)N(C6CCC(=O)NC6=O)C7=O)CC5)CC4)s3)cnc2N)c1 (stereo not drawn) [Compound C19] | 3
